Consider three compounds from patent publication US8299267B2, “(3-hydroxy-4-amino-butan-2-yl) -3- (2-thiazol-2-yl-pyrrolidine-1-carbonyl) benzamide derivatives and related compounds as beta-secretase inhibitors for treating” (CoMentis, Inc., priority 2007, dated 2012).

Assay [1] has as its target cathepsin D (Homo sapiens, UniProt P07339). In words: Inhibition of cathepsin D activity (substrate peptide ELDLAVEFWHDR, MALDI-TOF). The class given is biochemical. The method, then:
[The procedure below names another target; the source lists this target under the same test.] (§1) A substrate peptide NH3-ELDLAVEFWHDR-CO2 (SEQ ID NO.: 1) was dissolved at 2 mg/mL in 10% glacial acetic acid and diluted into 0.009M NaOH to obtain μM concentration at pH 4.1. After equilibration at 37 degrees C., the reactions were initiated by the addition of an aliquot of memapsin 2. Aliquots were removed at time intervals, and combined with an equal volume of MALDI-TOF matrix (α-hydroxycinnamic acid in acetone, 20 mg/mL) and immediately spotted in duplicate onto a stainless-steel MALDI sample plate. MALDI-TOF mass spectrometry was performed on a PE Biosystems Voyager DE. The instrument was operated at 25,000 accelerating volts in positive mode with a 150 ns delay. Ions with a mass-to-charge ratio (m/z) were detected in the range of 650-2000 atomic mass units. Data were analyzed by the Voyager Data Explorer module to obtain ion intensity data for mass species of substrates and corresponding products in a given mixture. Relative product formation was calculated as the ratio of signal intensity of the product to the sum of signal intensities of both product and the corresponding substrate. Relative product formed per unit time was obtained from non-linear regression analysis of the data representing the initial 15% formation of product using the model: 1−e^−kT, where k was the relative hydrolytic rate constant and T was time in seconds. Initial rates were expressed relative to uninhibited controls and fit to a tight-binding model of competitive inhibition as above.

Assay [2] has as its target T1, memapsin 1 (Homo sapiens, UniProt Q9Y5Z0).
T1 sequence (Q9Y5Z0 63-518): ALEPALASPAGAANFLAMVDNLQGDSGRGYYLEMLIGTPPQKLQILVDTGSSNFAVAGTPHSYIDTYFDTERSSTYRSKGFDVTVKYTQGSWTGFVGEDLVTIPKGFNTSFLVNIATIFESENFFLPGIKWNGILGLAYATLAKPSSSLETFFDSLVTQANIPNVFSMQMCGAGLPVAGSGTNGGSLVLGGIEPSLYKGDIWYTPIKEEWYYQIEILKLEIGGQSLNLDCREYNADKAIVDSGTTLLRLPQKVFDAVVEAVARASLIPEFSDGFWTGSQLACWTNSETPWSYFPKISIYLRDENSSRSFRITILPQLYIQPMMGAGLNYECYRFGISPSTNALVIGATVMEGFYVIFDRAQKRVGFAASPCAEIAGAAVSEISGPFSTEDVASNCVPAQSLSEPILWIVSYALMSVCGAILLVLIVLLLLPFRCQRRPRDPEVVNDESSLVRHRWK
The experiment in a line: Inhibition of memapsin 1 beta-secretase activity (substrate peptide ELDLAVEFWHDR, MALDI-TOF). The class given is biochemical. The method, then:
[The procedure below names another target; the source lists this target under the same test.] as §1

The target of assay [3] is memapsin 2 (Homo sapiens, UniProt P56817). In words: Inhibition of memapsin 2 beta-secretase activity toward fluorogenic substrate FS-2. The class given is biochemical. Summed up:
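Memapsin 2 was preincubated with compound 20 min at pH 4, 37 °C, then reacted with fluorogenic substrate FS-2 (MCA-SEVNLDAEFK-DNP), an APP-derived Swedish-variant peptide. Inhibition was followed kinetically by fluorescence.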

In assay [4] the test system is Aβ production in Chinese hamster ovary cells that over-express human APP695 with the London and Swedish mutations. The experiment in a line: Cellular Aβ IC50 determination (Aβ40 sandwich ELISA). In kind it is cell-based. Conditions: Cricetulus griseus. Summed up:
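APP695 (London/Swedish)-overexpressing CHO cells were treated 48 h after seeding with serial dilutions from near 4 μM top concentration (0.4% DMSO) for 24 h at 37 °C. Secreted Aβ40 was quantified by sandwich ELISA relative to controls and fit to a 4-parameter IC50 model.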
(In general: In an ELISA, binding on a coated surface is turned into a signal by an enzyme label.)

Setting [5] is: cathepsin D, pH 4.1, 37 degrees C., read-out: CDKi.
[6] abbreviates: memapsin 1, pH 4.1, 37 degrees C., read-out: M1Ki.
The mark [7] stands for this setting: memapsin 2, pH 4, 37° C., 20 minutes pre-incubation, substrate FS-2, read-out: M2Ki.
Where [8] appears, read: Aβ40 in CHO cells over-expressing human APP695, 24 h incubation.

Each structure is given as a SMILES string. Read-outs that look alike come from different tables or passages of the source. Bounds are passed on as bounds.

Sequence of cathepsin D (P07339 65-412, species assumed): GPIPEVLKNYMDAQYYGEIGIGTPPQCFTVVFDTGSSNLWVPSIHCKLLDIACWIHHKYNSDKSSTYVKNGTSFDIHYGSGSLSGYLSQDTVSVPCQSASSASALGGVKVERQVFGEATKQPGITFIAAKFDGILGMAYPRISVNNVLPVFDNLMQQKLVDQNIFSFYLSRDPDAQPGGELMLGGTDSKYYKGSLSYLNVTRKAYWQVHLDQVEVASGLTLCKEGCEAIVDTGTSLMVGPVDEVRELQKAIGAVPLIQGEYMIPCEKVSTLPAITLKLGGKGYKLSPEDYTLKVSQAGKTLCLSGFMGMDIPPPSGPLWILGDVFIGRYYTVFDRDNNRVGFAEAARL
Sequence of memapsin 2 (P56817 46-501): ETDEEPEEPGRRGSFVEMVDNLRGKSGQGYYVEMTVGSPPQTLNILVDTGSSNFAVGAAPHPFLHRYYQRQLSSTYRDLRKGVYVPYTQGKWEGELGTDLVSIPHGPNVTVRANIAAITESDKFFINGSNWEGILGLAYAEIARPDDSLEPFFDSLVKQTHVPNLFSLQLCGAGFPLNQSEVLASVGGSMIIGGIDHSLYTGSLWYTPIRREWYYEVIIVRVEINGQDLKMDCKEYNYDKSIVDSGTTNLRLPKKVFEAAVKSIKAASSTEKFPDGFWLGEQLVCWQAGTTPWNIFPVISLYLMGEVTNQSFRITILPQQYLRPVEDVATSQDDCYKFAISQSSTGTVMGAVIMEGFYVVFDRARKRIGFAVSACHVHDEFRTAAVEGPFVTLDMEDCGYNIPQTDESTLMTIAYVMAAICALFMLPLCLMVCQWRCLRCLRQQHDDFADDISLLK

Usually IC50 stands for the midpoint of a concentration-inhibition curve. Low values mean greater potency in that assay, high ones weaker potency in that assay. For `Cc1cc(C(=O)N[C@@H](Cc2ccccc2)[C@H](O)CNCc2cccc(C(C)(C)C)c2)cc(C(=O)N2CCC[C@@H]2c2nc(C)cs2)c1` [Compound 14, N-((2S,3R)-4-(3-tert-butylbenzylamino)-3-hydroxy-1-phenylbutan-2-yl)-3-methyl-5-((R)-2-(4-methylthiazol-2-yl)pyrrolidine-1-carbonyl)benzamide], the Ki in assay [1] (setting [5]) was < 300 nM; in assay [2] (setting [6]), < 300 nM; in assay [3] (setting [7]), < 100 nM. Also, the IC50 in assay [4] (setting [8]) was < 300 nM.

In the case of `COc1cccc(CNC[C@@H](O)[C@H](Cc2ccccc2)NC(=O)c2cccc(C(=O)N3COC[C@@H]3c3nc(C)cs3)c2)c1` [Compound 15, N-((2S,3R)-3-hydroxy-4-(3-methoxybenzylamino)-1-phenylbutan-2-yl)-3-((R)-4-(4-methylthiazol-2-yl)oxazolidine-3-carbonyl)benzamide], the Ki was < 300 nM in assay [1] (setting [5]), 301 to 500 nM in assay [2] (setting [6]) and < 100 nM in assay [3] (setting [7]). Besides, in assay [4] (setting [8]), the IC50 was < 300 nM.

As for `Cc1csc([C@H]2CCCN2C(=O)c2cccc(C(=O)N[C@@H](Cc3ccccc3)[C@H](O)CNCc3cccc(C(F)(F)F)c3)c2)n1` [N-((2S,3R)-3-hydroxy-1-phenyl-4-(3-(trifluoromethyl)benzylamino)butan-2-yl)-3-((R)-2-(4-methylthiazol-2-yl)pyrrolidine-1-carbonyl)benzamide], the results for the Ki in assay [1] (read-out: CathD Ki), in assay [2] (read-out: M1 Ki) and in assay [3] (read-out: M2 Ki) were 1080 nM, 826 nM and 7.09 nM, respectively. In addition, the midpoint of inhibition in assay [4] (cellular Aβ), the IC50, lay at 23 nM.
